Assays:
HAQ allele hSTING = biological target: T1, HAQ allele hSTING (Homo sapiens, UniProt Q86WV6, G230A/H232R/R293Q); assay: DSF Tm shift, purified hSTING HAQ allele (AA140-379); assay type: binding; conditions: 1 mg/ml STING AA140-379, ligand 1 mM
T1 construct: 6xHis-SUMO (with TEV site) (N, cleaved yes); made in house; host or cells: Rosetta2 (DE3) E. coli
Description: (§1) Cells were grown in lysogeny broth at 37° C. until a […] absorbance of 0.6 was reached. […] Cells were lysed using an S-450D sonifier (Emmerson industrial) on ice. […] Protein was aliquoted, flash frozen in liquid nitrogen and stored at −80° C. until use.
(§2) The protein is heated in the presence of a dye that binds to and fluoresces in hydrophobic environments. The protein is thermally denatured by heating resulting in increased dye binding to the unfolded protein and fluorescence. The temperature midpoint (Tm) of a proteins denaturation is established by calculating the half maximal value of the denaturation curve. The temperature midpoint of the protein in the presence of a ligand is directly related to the affinity of the ligand for the protein and therefore its ability to stabilize the protein at higher temperatures.

REF allele hSTING = biological target: T2, REF allele hSTING (Homo sapiens, UniProt Q86WV6); assay: DSF Tm shift, purified hSTING REF allele (AA140-379); assay type: binding; conditions: 1 mg/ml STING AA140-379, ligand 1 mM
T2 construct: 6xHis-SUMO (with TEV site) (N, cleaved yes); made in house; host or cells: Rosetta2 (DE3) E. coli
Description: as §1, §2

[1] = tested on: THP1 cells (hSTING HAQ allele); assay: THP1-Dual IRF-3 luciferase reporter assay without digitonin; assay type: cell-based, human; conditions: 30 min compound incubation, overnight readout of secreted luciferase
Description: Cells were washed with fresh media and incubated for 30 min at 37° C. with 5% CO2 with compounds in 3-fold titration steps from 2,000 to 0.0338 μM in PB buffer (50 mM 4-(2-hydroxyethyl)-1-piperazineethanesulfonic acid, 100 mM KCl, 3 mM MgCl2, 0.1 mM dithiothreitol, 85 mM sucrose, 1 mM ATP, 0.1 mM GTP and 0.2% bovine serum albumin). After 30 minutes, cells were washed and fresh RPMI media containing 10% FBS was added, and cells were incubated at 37° C. with 5% CO2. Cell culture supernatants from each sample were collected after overnight incubation, and 10 μl of the cell culture supernatants was added to 50 μl QUANTI-Luc reagent (Invivogen). Type I interferon activation was determined by measuring secreted luciferase levels on a SpectraMax M3 spectrophotometer (Molecular Devices). The EC50 value for the same compounds as tested in Example 4 was determined from the dose-response curve for the 10 concentrations from the serial dilution of the compounds in this assay.

wild type hSTING = biological target: T3, wild type hSTING (Homo sapiens, UniProt Q86WV6, H232R); assay: DSF Tm shift, purified hSTING WT (AA140-379); assay type: binding; conditions: 1 mg/ml STING AA140-379, ligand 1 mM
T3 construct: 6xHis-SUMO (with TEV site) (N, cleaved yes); made in house; host or cells: Rosetta2 (DE3) E. coli
Description: as §1, §2

hSTING REF allele = biological target: T4, hSTING REF allele (Homo sapiens, UniProt Q86WV6); assay: ITC binding assay, hSTING REF allele; conditions: 25° C., protein 0.1 mM, ligand 0.35 mM
T4 construct: made in house; host or cells: BL21 Rosetta 2 (DE3) E. coli
Description: (§3) The WT and REF proteins were similarly prepared for use in an ITC binding assay. Expression plasmids were transformed into BL21 Rosetta 2 (DE3) (EMD Millipore) E. coli cells for protein expression. 50 ml starter cultures were grown overnight in 2×YT supplemented with 50 μg/ml kanamycin and 30 μg/ml chloramphenicol. Multi-liter large scale cultures of the same growth media as the starter were inoculated at a ratio of 1:1,000 (V/V) and allowed to grow at 37° C. to an optical density of 0.6, cultures were then shifted to 18° C. Protein expression was induced by the addition of isopropyl β-D-1-thiogalactopyranoside to a final concentration of 0.3 mM. Protein expression was allowed to proceed for 18-24 hrs. Pelleted cells were resuspended in 50 mM Tris pH 7.5, 500 mM NaCl, 10% glycerol, 20 mM imidazole, 1 mM TCEP and complete protease inhibitor cocktail (Sigma). Cells were lysed by sonication (Branson) and insoluble material was removed by centrifugation. Proteins were purified on Ni-NTA resin and concentrated to >10 mg/ml. 6×H-SUMO-STING LBD was further purified by gel filtration chromatography using a High Load 26/600 Superdex 75 column (GE Healthcare) in a buffer of 20 mM Tris pH 7.5, 150 mM NaCl, 5% glycerol and 1 mM TCEP. Peak fractions were concentrated to between 10-15 mg/ml via ultrafiltration aliquoted and flash frozen in liquid nitrogen and stored at […]
The resulting amino acid sequences for the STING REF allele is as follows: • Allele Name: REF • Amino Acid Sequence:
(§4) Proteins were dialyzed overnight in 20 mM HEPES pH 7.5, 150 mM NaCl. Insoluble material was removed by centrifugation at 31,000×g. The invention compound 2′2′-RR-(3′F-A)(3′F-A) and comparison STING agonists 3′3′-RR-(2′F-A)(2′F-A); 2′3′-RR-(3′F-A)(2′F-A) were resuspended in dialysis buffer. The concentration of both the protein and ligands were checked by spectroscopy and adjusted if necessary.
(§5) STING protein was added to the ITC sample cell at a final concentration of 0.1 mM. The CDN ligand was at a final concentration of 0.35 mM in the syringe. […]

4T1 mammary carcinoma [2] = assay: Tumor-specific T cells in blood of 4T1 mice (AH1 tetramer flow cytometry); assay type: in vivo, BALB/c mice; conditions: day 7 post IT injection, 0.1, 1 and 10 μg IT doses, compared to HBSS
Description: (§6) To assess the ability of 2′2′-RR-(3′F-A)(3′F-A) to promote anti-tumor immunity in a murine tumor model, 6-8 week old female BALB/c mice (n=8/group) were implanted in both the left and the right flanks with 4T1 mammary carcinoma cells (2×10^5 cells in 100 μL PBS). Mice were treated with 2′2′-RR-(3′F-A)(3′F-A) at 0.1, 1, 10 and 100 μg in a total volume of 40 μL HBSS and compared to Hank's Balanced Salt Solution (HBSS) vehicle control. Compound was administered when tumors reached a volume of approximately 40-50 mm^3 on day 8 post tumor implantation (indicated by dotted line on the x-axis in tumor growth graphs). The compound was administered by a single […] injection into the center of the tumor (intratumoral, IT) using a 27 gauge needle. Tumors were measured twice weekly.
Lympholyte (Cedarlane) gradient-purified PBMCs (˜1×10^6) were pre-incubated with anti-CD16/32 monoclonal antibody to block potential non-specific binding and labeled with murine T-Select H-2L^d MuLV gp70 Tetramer-[…]-PE (SEQ ID NO: 20, AH1 peptide with PE fluorescent label, MBL), anti-CD4-BUV737 (RMA4-5), anti-CD8α-BUV395 (53-6.7) (BD Biosciences); anti-CD90.2 BV510 (30-H12) (BioLegend) and the Fixable LIVE/DEAD Near-IR viability dye (ThermoFisher). Data were acquired using a LSRFortessa X-20 cytometer with FACSDiva software (BD) and analyzed with FlowJo software (Tree Star).

4T1 mammary carcinoma [3] = assay: AH1-specific T cells in distal 4T1 tumor (TILs), with or without anti-PD-1; assay type: in vivo, BALB/c mice
Description: To assess the ability of 2′2′-RR-(3′F-A)(3′F-A) to promote anti-tumor immunity in murine tumor models in combination with an antagonistic anti-PD-1 antibody, 6-8 week old female BALB/c mice (n=8/group) were implanted in both the left and the right flanks with 4T1 mammary carcinoma cells (2×10^5 cells in 100 aL PBS, day 0). Mice were treated with vehicle alone or 1 μg 2′2′-RR-(3′F-A)(3′F-A) in a total volume of 40 aL HBSS by IT injection using a 27 gauge needle when tumors reached a volume of approximately 40-50 mm^3 on day 8 post tumor implantation (indicated by dotted line on the x-axis in tumor growth graphs). Mice were given intraperitoneal (IP) injections of 200 μg control IgG or anti-PD-1 (clone RMP1-14, BioXCell) beginning on the day of 2′2′-RR-(3′F-A)(3′F-A) treatment and then continuing twice per week throughout the duration of the experiment. […] Tumors were measured twice weekly.
To directly quantify the effect of combining 2′2′-RR-(3′F-A)(3′F-A) with anti-PD-1 on tumor-specific T cells, a cohort of mice from Example 9 were euthanized on day 7 post IT injection and non-injected tumors dissociated into a single cell suspension. […] Data were acquired using a LSRFortessa X-20 cytometer with FACSDiva software (BD) and analyzed with FlowJo software (Tree Star).

4T1 mammary carcinoma [4] = assay: 4T1 mammary carcinoma dual-flank model, combination with anti-PD-1 antibody; assay type: in vivo, BALB/c mice
Description: To assess the ability of 2′2′-RR-(3′F-A)(3′F-A) to promote anti-tumor immunity in murine tumor models in combination with an antagonistic anti-PD-1 antibody, 6-8 week old female BALB/c mice (n=8/group) were implanted in both the left and the right flanks with 4T1 mammary carcinoma cells (2×10^5 cells in 100 aL PBS, day 0). Mice were treated with vehicle alone or 1 μg 2′2′-RR-(3′F-A)(3′F-A) in a total volume of 40 aL HBSS by IT injection using a 27 gauge needle when tumors reached a volume of approximately 40-50 mm^3 on day 8 post tumor implantation (indicated by dotted line on the x-axis in tumor growth graphs). Mice were given intraperitoneal (IP) injections of 200 μg control IgG or anti-PD-1 (clone RMP1-14, BioXCell) beginning on the day of 2′2′-RR-(3′F-A)(3′F-A) treatment and then continuing twice per week throughout the duration of the experiment. Some mice were given IP injection of 100 μg anti-CD8 (clone 2.43, BioXCell) on study days 6, 8, 10, 14, and 17 to deplete CD8^+ T cells. Tumors were measured twice weekly.

hSTING WT = biological target: T5, hSTING WT (Homo sapiens, UniProt Q86WV6, H232R); assay: ITC binding assay, hSTING WT; conditions: 25° C., protein 0.1 mM, ligand 0.35 mM
T5 construct: made in house; host or cells: BL21 Rosetta 2 (DE3) E. coli
Description: as §3
The resulting amino acid sequence for the STING WT allele is as follows: • Allele Name: WT • Amino Acid Sequence:
as §4, §5

4T1 mammary carcinoma [5] = assay: 4T1 mammary carcinoma dual-flank model, single intratumoral injection; assay type: in vivo, BALB/c mice
Description: as §6

[6] = 1 μg IT combined with anti-PD-1 antibody 200 μg IP twice per week

hSTING Tm Shift HAQ (HAQ allele hSTING) [°C] | hSTING Tm Shift REF (REF allele hSTING) [°C] | EC50 ([1]; Homo sapiens, THP-1, 0.5 h) [nM] | hSTING Tm Shift WT (wild type hSTING) [°C] | Kd (hSTING REF allele) [nM] | EC50 [1] [nM] | Kd (hSTING WT) [nM] | SMILES | frequency of tumor-specific systemic T cells (4T1 mammary carcinoma [2]) | tumor-specific T cell response in distal tumor (4T1 mammary carcinoma [3]; 1 μg IT alone, TILs day 7 post IT injection) | polyfunctional IFNγ+TNFα+ CD8 T cells specific for the AH1 peptide in the tumor microenvironment (4T1 mammary carcinoma [3]; 1 μg IT combined with anti-PD-1, TILs of non-injected tumor, day 7 post IT injection) | cures, injected tumor (4T1 mammary carcinoma [4]; 1 μg IT + control IgG) [%] | cures, non-injected tumor (4T1 mammary carcinoma [4]; 1 μg IT + control IgG) [%] | cures, distal (non-injected) tumor (4T1 mammary carcinoma [4]; [6]) [%] | cures, primary (injected) tumor (4T1 mammary carcinoma [4]; [6]) [%] | cures of the distal tumor (4T1 mammary carcinoma [5]; 10 μg single IT dose, n=8) [%] | cures of the primary tumor (4T1 mammary carcinoma [5]; 10 μg single IT dose, n=8) [%] | tumor inhibition in primary (injected) and distal (non-injected) flank tumor (4T1 mammary carcinoma [5]; single IT injection 0.1, 1, 10, 100 μg, compared to HBSS)
5.1 | 3.6 | > 150000 | 3.4 |  |  |  | Nc1ncnc2c1ncn2[C@@H]1O[C@@H]2CO[P@@](=O)(S)O[C@@H]3[C@H](O)[C@@H](CO[P@@](=O)(S)O[C@@H]1[C@@H]2O)O[C@H]3n1cnc2c(N)ncnc21 [2′2′-RR-(A)(A), (1R,3R,6R,8R,9R,11R,14R,16R,17R,18R)-8,16-bis(6-amino-9H-purin-9-yl)-17,18-dihydroxy-3,11-dimercapto-2,4,7,10,12,15-hexaoxa-3,11-diphosphatricyclo[12.2.1.1^6,9]octadecane 3,11-dioxide] |  |  |  |  |  |  |  |  |  | 
19.7 | 12.5 | < 20000 | 13.9 | 170 | 16600 | 98 | Nc1ncnc2c1ncn2[C@@H]1O[C@@H]2CO[P@@](=O)(S)O[C@@H]3[C@H](F)[C@@H](CO[P@@](=O)(S)O[C@@H]1[C@@H]2F)O[C@H]3n1cnc2c(N)ncnc21 [2′2′-RR-(3′F-A)(3′F-A), (1S,3R,6R,8R,9S,11R,14R,16R,17R,18R)-8,16-bis(6-amino-9H-purin-9-yl)-17,18-difluoro-3,11-dimercapto-2,4,7,10,12,15-hexaoxa-3,11-diphosphatricyclo[12.2.1.1^6,9]octadecane 3,11-dioxide] | significantly higher frequency | measurable above background | statistically significant increase | 25 | 0 | 62.5 | 87.5 | 37.5 | 100 | potent dose-dependent tumor inhibition
26 | 10.5 | 4500 | 14.5 | 333 |  | 109 | Nc1ncnc2c1ncn2[C@@H]1O[C@@H]2CO[P@@](=O)(S)O[C@@H]3[C@H](F)[C@@H](OC[P@@](=O)(S)O[C@H]2[C@H]1F)O[C@H]3n1cnc2c(N)ncnc21 [2′3′-RR-(3′F-A)(2′F-A), dithio-[Rp,Rp]-cyclic-[3′F-A(2′,5′)p-2′F-A(3′,5′)p]] |  |  |  |  |  |  |  |  |  | 
